Consider twelve molecules from article PMC8926291 (Chemical Science, 2022).

In series [1] the target is T1, hGIP-R ECD (Homo sapiens, UniProt P48546).
T1 sequence (P48546 22-138): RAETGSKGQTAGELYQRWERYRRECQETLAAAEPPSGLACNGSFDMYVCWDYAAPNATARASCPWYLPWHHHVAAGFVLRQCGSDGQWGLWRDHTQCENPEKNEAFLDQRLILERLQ
Description: single-concentration BLI binding of crude peptides to biotinylated hGIP-R ECD.

Series [2] can be described thus: pharmacokinetic study in rats, i.v. dosing. The following applies: male, Sprague-Dawley, rat, plasma, iv, 2 nmol/kg, mean. It is filed as in vivo.
Series [3] in a line: in vitro plasma stability in human plasma. The conditions noted are these: 37 °C, over 5 h.
Series [4] addresses T1, hGIP-R ECD. Description: multi-concentration BLI binding of purified peptides to hGIP-R ECD. Background: In BLI a coated tip is dipped into the sample, and binding shifts an interference pattern.
The conditions of series [5]: cited from earlier work.

Starred links: 1 amine or outer side, 2 acyl side, 3 side chain; linkers in the order of their positions; H or OH if unused. Positions of bridges follow the written chain, without caps; N, C: chain ends. Residues, ends and D or L forms follow the SMILES beside them. *: point of attachment. C18 diacid = O=C(O)CCCCCCCCCCCCCCCCC(=O)*; γGlu = O=C(O)[C@H](CCC(=O)[*:2])N[*:1]; AEEA = NCCOCCOCC(=O)O

As for `CSCC[C@H](NC(C)=O)C(=O)N[C@H]1CSSC[C@@H](C(=O)NCC(=O)N[C@@H](CO)C(=O)NCC(=O)N[C@@H](CO)C(=O)N[C@@H](CC(=O)O)C(=O)N[C@@H](Cc2ccc(O)cc2)C(=O)N[C@@H](CCCCN)C(=O)N[C@@H](CC(=O)O)C(=O)N[C@@H](CC(=O)O)C(=O)N[C@@H](CC(=O)O)C(=O)N[C@@H](CC(=O)O)C(=O)N[C@@H](CCCCN)C(N)=O)NC(=O)[C@H](Cc2ccccc2)NC(=O)[C@@H]2CCCN2C(=O)[C@H](Cc2c[nH]c3ccccc23)NC(=O)[C@H](CC(C)C)NC(=O)[C@H](CC(C)C)NC(=O)[C@H](CO)NC(=O)[C@H](Cc2ccccc2)NC(=O)[C@H](Cc2ccccc2)NC(=O)[C@H](CCCNC(=N)N)NC(=O)[C@H](Cc2ccccc2)NC1=O` [B_68] (Ac-MCFRFFSLLWPFCGSGSDYKDDDDK-NH2; disulfide 2-13), the “binding to hGIP-R ECD (in words)” value on hGIP-R ECD [1] is listed as “did not reveal any binding”. By half-life is commonly meant how long it takes for the measured level to halve. Low readings indicate rapid decline, high ones slow decline. In turn, `CSCC[C@H](NC(=O)COCCOCCNC(=O)COCCOCCNC(=O)CC[C@H](NC(=O)CCCCCCCCCCCCCCCCC(=O)O)C(=O)O)C(=O)N[C@H]1CSSC[C@@H](C(=O)NCC(=O)N[C@@H](CO)C(=O)NCC(=O)N[C@@H](CO)C(=O)N[C@@H](CC(=O)O)C(=O)N[C@@H](Cc2ccc(O)cc2)C(=O)N[C@@H](CCCCN)C(=O)N[C@@H](CC(=O)O)C(=O)N[C@@H](CC(=O)O)C(=O)N[C@@H](CC(=O)O)C(=O)N[C@@H](CC(=O)O)C(=O)N[C@@H](CCCCN)C(N)=O)NC(=O)[C@H](Cc2ccccc2)NC(=O)[C@@H]2CCCN2C(=O)[C@H](Cc2c[nH]c3ccccc23)NC(=O)[C@H](CC(C)C)NC(=O)[C@H](CCSC)NC(=O)[C@H](Cc2c[nH]cn2)NC(=O)[C@H](Cc2ccccc2)NC(=O)[C@H](Cc2c[nH]cn2)NC(=O)[C@H]([C@@H](C)O)NC(=O)[C@H](Cc2ccccc2)NC1=O` [B_1275.1] ({C18 diacid-γGlu-AEEA-AEEA}-MCFTHFHMLWPFCGSGSDYKDDDDK-NH2; disulfide 2-13) showed a half-life in series [2] (t½ (h)) of 10.7 h. Consider `CSCC[C@H](NC(=O)COCCOCCNC(=O)COCCOCCNC(=O)CC[C@H](NC(=O)CCCCCCCCCCCCCCCCC(=O)O)C(=O)O)C(=O)N[C@H]1CSSC[C@@H](C(N)=O)NC(=O)[C@H](Cc2ccccc2)NC(=O)[C@@H]2CCCN2C(=O)[C@H](Cc2c[nH]c3ccccc23)NC(=O)[C@H](CC(C)C)NC(=O)[C@H](CCSC)NC(=O)[C@H](Cc2c[nH]cn2)NC(=O)[C@H](Cc2ccccc2)NC(=O)[C@H](Cc2c[nH]cn2)NC(=O)[C@H]([C@@H](C)O)NC(=O)[C@H](Cc2ccccc2)NC1=O` [B_1275.3] ({C18 diacid-γGlu-AEEA-AEEA}-MCFTHFHMLWPFC-NH2; disulfide 2-13), for which the “In vitro plasma stability (in words)” value in series [3] is “no decrease in plasma stability”. Regarding `CC(=O)N[C@@H](C)C(=O)N[C@H]1CSSC[C@@H](C(=O)NCC(=O)N[C@@H](CO)C(=O)NCC(=O)N[C@@H](CO)C(=O)N[C@@H](CC(=O)O)C(=O)N[C@@H](Cc2ccc(O)cc2)C(=O)N[C@@H](CCCCN)C(=O)N[C@@H](CC(=O)O)C(=O)N[C@@H](CC(=O)O)C(=O)N[C@@H](CC(=O)O)C(=O)N[C@@H](CC(=O)O)C(=O)N[C@@H](CCCCN)C(N)=O)NC(=O)[C@H](Cc2ccccc2)NC(=O)[C@@H]2CCCN2C(=O)[C@H](Cc2c[nH]c3ccccc23)NC(=O)[C@H](CC(C)C)NC(=O)[C@H](CC(C)C)NC(=O)[C@H](CC(=O)O)NC(=O)[C@H](Cc2ccccc2)NC(=O)[C@H](Cc2c[nH]cn2)NC(=O)[C@H]([C@@H](C)O)NC(=O)[C@H](Cc2ccccc2)NC1=O` [B_1275.4] (Ac-ACFTHFDLLWPFCGSGSDYKDDDDK-NH2; disulfide 2-13), the “In vitro plasma stability (in words)” value in series [3] was “no decrease in plasma stability”. For the same molecule, the half-life in series [2] (t½ (min)) was 0.0583 h. The matching figures for `CC(=O)N[C@@H](C)C(=O)N[C@H]1CSSC[C@@H](C(=O)O)NC(=O)[C@H](Cc2ccccc2)NC(=O)[C@@H]2CCCN2C(=O)[C@H](Cc2c[nH]c3ccccc23)NC(=O)[C@H](CC(C)C)NC(=O)[C@H](CC(C)C)NC(=O)[C@H](CC(=O)O)NC(=O)[C@H](Cc2ccccc2)NC(=O)[C@H](Cc2c[nH]cn2)NC(=O)[C@H]([C@@H](C)O)NC(=O)[C@H](Cc2ccccc2)NC1=O` [B_1275.5] (Ac-ACFTHFDLLWPFC-OH; disulfide 2-13): “no decrease in plasma stability” and 0.03 h.

Consider `CC(C)C[C@@H]1NC(=O)[C@H](CC(=O)O)NC(=O)[C@H](Cc2ccccc2)NC(=O)[C@H](Cc2c[nH]cn2)NC(=O)[C@H]([C@@H](C)O)NC(=O)[C@H](Cc2ccccc2)NC(=O)[C@@H](NC(=O)[C@H](C)NC(=O)COCCOCCNC(=O)COCCOCCNC(=O)CC[C@H](NC(=O)CCCCCCCCCCCCCCCCC(=O)O)C(=O)O)CSSC[C@@H](C(=O)O)NC(=O)[C@H](Cc2ccccc2)NC(=O)[C@@H]2CCCN2C(=O)[C@H](Cc2c[nH]c3ccccc23)NC(=O)[C@H](CC(C)C)NC1=O` [B_1275.6] ({C18 diacid-γGlu-AEEA-AEEA}-ACFTHFDLLWPFC-OH; disulfide 2-13), for which the “In vitro plasma stability (in words)” value in series [3] is recorded as “no decrease in plasma stability”. The molecule also gave a half-life in series [2] (t½ (h)) of 4.2 h. In the case of `CC(=O)N[C@@H](C)C(=O)N[C@H]1CSSC[C@@H](C(=O)NCC(=O)N[C@@H](CO)C(=O)NCC(=O)N[C@@H](CO)C(=O)N[C@@H](CC(=O)O)C(=O)N[C@@H](Cc2ccc(O)cc2)C(=O)N[C@@H](CCCCN)C(=O)N[C@@H](CC(=O)O)C(=O)N[C@@H](CC(=O)O)C(=O)N[C@@H](CC(=O)O)C(=O)N[C@@H](CC(=O)O)C(=O)N[C@@H](CCCCN)C(N)=O)NC(=O)[C@@H]2CCCN2C(=O)[C@@H]2CCCN2C(=O)[C@H](Cc2c[nH]c3ccccc23)NC(=O)[C@H](CC(C)C)NC(=O)[C@H](CC(C)C)NC(=O)[C@H](Cc2c[nH]cn2)NC(=O)[C@H](Cc2ccccc2)NC(=O)[C@H](Cc2c[nH]cn2)NC(=O)[C@H]([C@@H](C)O)NC(=O)[C@H](Cc2ccccc2)NC1=O` [B_1275.10] (Ac-ACFTHFHLLWPPCGSGSDYKDDDDK-NH2; disulfide 2-13), the “binding to hGIP-R ECD (in words)” value at hGIP-R ECD [4] is recorded as “did not show any binding”.

Take “Ac-MSFIHWDMLWPFSGSGSDYKDDDDK-NH2 [B_5.2]”: the “binding to hGIP-R ECD (in words)” value at hGIP-R ECD [4] is on record as “None of the linear variants”. Take “Ac-MSFQYFHILWPFSGSGSDYKDDDDK-NH2 [B_3.2]”: the “binding to hGIP-R ECD (in words)” value on hGIP-R ECD [4] is “None of the linear variants”.

Take “Ac-MSFRFFSLLWPFSGSGSDYKDDDDK-NH2 [B_68.2]”: the “binding to hGIP-R ECD (in words)” value at hGIP-R ECD [4] is “None of the linear variants”. The same measure, in the same setting: the result for “Ac-MSFTHFHMLWPFSGSGSDYKDDDDK-NH2 [B_1275.2]” reads “None of the linear variants”.

On to semaglutide, for which the t1/2 in rats in series [5] was 7 h.
